PubChem BioAssay (NCI)
“And” between values parts separate entries of the source, which are not always exact repeats. Identical values can stand only once.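 Grown in 96-well plates, cells were treated for 48 hours with each compound at five concentrations. Insufficient inhibition: endpoint recorded as highest concentration tested. GI50 is the concentration that inhibits growth by half. TGI: concentration producing complete growth inhibition.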

Experiments:
Test in all cases: NCI tumour cell line growth inhibition, 48 h
[1] = tested on: TK-10 renal
[2] = tested on: SNB-75 CNS
[3] = tested on: UACC-257 melanoma
[4] = tested on: SF-268 CNS
[5] = tested on: OVCAR-5 ovarian
[6] = tested on: HCT-116 colon
[7] = tested on: DLD-1 colon
[8] = tested on: COLO 205 colon
[9] = tested on: HCC-2998 colon
[10] = tested on: SR leukemia
[11] = tested on: RXF-631 renal
[12] = tested on: HOP-18 NSCLC
[13] = tested on: OVCAR-4 ovarian
[14] = tested on: IGROV1 ovarian
[15] = tested on: M14 melanoma
[16] = tested on: LXFL 529 NSCLC
[17] = tested on: SNB-78 CNS
[18] = tested on: MALME-3M melanoma
[19] = tested on: HL-60(TB) leukemia
[20] = tested on: CAKI-1 renal
[21] = tested on: RPMI-8226 leukemia
[22] = tested on: MOLT-4 leukemia
[23] = tested on: NCI-H226 lung
[24] = tested on: A549 NSCLC
[25] = tested on: NCI-H23 lung
[26] = tested on: LOX IMVI melanoma
[27] = tested on: K-562 leukemia
[28] = tested on: HT29 colon
[29] = tested on: SK-MEL-28 melanoma
[30] = tested on: KM12 colon
[31] = tested on: OVCAR-8 ovarian
[32] = tested on: NCI-H460 lung
[33] = tested on: UO-31 renal
[34] = tested on: SF-539 CNS
[35] = tested on: HOP-92 NSCLC
[36] = tested on: SNB-19 CNS
[37] = tested on: SW-620 colon
[38] = tested on: UACC-62 melanoma
[39] = tested on: HOP-62 NSCLC
[40] = tested on: XF 498 CNS
[41] = tested on: NCI-H522 lung
[42] = tested on: DMS 273 small cell lung
[43] = tested on: OVCAR-3 ovarian
[44] = tested on: KM20L2 colon
[45] = tested on: HCT-15 colon
[46] = tested on: 786-0 renal
[47] = tested on: SF-295 CNS
[48] = tested on: ACHN renal
[49] = tested on: SK-OV-3 ovarian
[50] = tested on: SN12C renal
[51] = tested on: SK-MEL-2 melanoma
[52] = tested on: NCI/ADR-RES ovarian
[53] = tested on: SN12K1 renal
[54] = tested on: EKVX NSCLC
[55] = tested on: CCRF-CEM leukemia
[56] = tested on: A498 renal
[57] = tested on: P388 leukemia
[58] = tested on: MCF7 breast
[59] = tested on: SK-MEL-5 melanoma
[60] = tested on: P388/ADR leukemia
[61] = tested on: DMS 114 small cell lung
[62] = tested on: RXF 393 renal
[63] = tested on: U251 CNS
[64] = tested on: M19-MEL melanoma

For `N#CC(C(=O)CCCC(=O)Nc1ccc(Cl)cc1Cl)c1ccc(Cl)cc1` (stereo not given), the TGI [1] was > 100 µM, the TGI [2] was > 100 µM and the TGI [3] was > 100 µM. For the same compound, the TGI [4] was > 100 µM, the TGI [5] was > 100 µM and the TGI [6] was > 100 µM. The TGI [7] was > 100 µM, the TGI [8] was > 100 µM and the TGI [9] was > 100 µM. For the same compound, the TGI [10] was > 100 µM, the TGI [11] was > 100 µM and the TGI [12] was > 100 µM. The TGI [13] was > 100 µM, the TGI [14] was > 100 µM and the TGI [15] was > 100 µM. For the same compound, the TGI [16] was > 100 µM, the TGI [17] was > 100 µM and the TGI [18] was > 100 µM. The TGI [19] was > 100 µM, the TGI [20] was > 100 µM and the TGI [21] was > 100 µM. For the same compound, the TGI [22] was > 100 µM, the TGI [23] was > 100 µM and the TGI [24] was > 100 µM. The TGI [25] was > 100 µM, the TGI [26] was > 100 µM and the TGI [27] was > 100 µM. For the same compound, the TGI [28] was > 100 µM, the TGI [29] was > 100 µM and the TGI [30] was > 100 µM. For the same compound, the TGI [31] was > 100 µM, the TGI [32] was > 100 µM and the TGI [33] was > 100 µM. For the same compound, the TGI [34] was > 100 µM, the TGI [35] was > 100 µM and the TGI [36] was > 100 µM. The TGI [37] was > 100 µM, the TGI [38] was > 100 µM and the TGI [39] was > 100 µM. The TGI [40] was > 100 µM, the TGI [41] was > 100 µM and the TGI [42] was > 100 µM. For the same compound, the TGI [43] was > 100 µM, the TGI [44] was > 100 µM and the TGI [45] was > 100 µM. For the same compound, the TGI [46] was > 100 µM, the TGI [47] was > 100 µM and the TGI [48] was > 100 µM. For the same compound, the TGI [49] was > 100 µM, the TGI [50] was > 100 µM and the TGI [51] was > 100 µM.

`Cc1c2ccncc2c(C)c2c1[nH]c1ccc(Cl)cc12` was tested, and the TGI [1] was 18.1 µM, the TGI [2] was 10 µM and 12.7 µM and the GI50 [3] was 5.39 µM and 2.34 µM. The TGI [3] was 12 µM and 12.8 µM, the TGI [52] was 4.75 µM and the GI50 [4] was 2.63 µM and 2.66 µM. The TGI [4] was 12.5 µM and 25.2 µM, the TGI [53] was 7.81 µM and the GI50 [54] was 3.9 µM. For the same compound, the TGI [54] was 12.6 µM and 19.3 µM, the GI50 [5] was 4.32 µM and the TGI [5] was 16.6 µM and 16.3 µM. For the same compound, the TGI [6] was 2.98 µM and 5.14 µM, the GI50 [7] was 1.67 µM and the TGI [7] was 8.14 µM and 4.89 µM. The GI50 [8] was 3.09 µM, the TGI [8] was 9.41 µM and 15 µM and the TGI [55] was 4.43 µM and 6.3 µM. The TGI [56] was 14.7 µM, the GI50 [9] was 2.34 µM and the TGI [9] was 19.3 µM and 13.9 µM. The TGI [57] was 3.91 µM, the TGI [58] was 6.28 µM and the TGI [12] was 18 µM. The GI50 [13] was 2.42 µM, the TGI [13] was 5.45 µM and 13.4 µM and the TGI [59] was 13.8 µM. The GI50 [14] was 3.88 µM, the TGI [14] was 13.7 µM and 21.1 µM and the TGI [15] was 16.7 µM. The TGI [16] was 14 µM, the GI50 [17] was 3.07 µM and the TGI [17] was 22.5 µM and 20.4 µM. For the same compound, the GI50 [18] was 3.63 µM, the TGI [18] was 14.3 µM and 15.2 µM and the TGI [60] was 10.2 µM. The GI50 [61] was 2.6 µM, the TGI [61] was 6.1 µM and 13 µM and the GI50 [19] was 2.62 µM. The GI50 [20] was 0.602 µM and 5.24 µM, the GI50 [21] was 1.77 µM and the TGI [21] was 9.7 µM and 4.43 µM. The GI50 [22] was 0.91 µM and 0.471 µM, the TGI [22] was 2.59 µM and 2.77 µM and the GI50 [23] was 8.58 µM. For the same compound, the TGI [23] was 11 µM and 25.4 µM, the GI50 [24] was 3.27 µM and 3.56 µM and the TGI [24] was 11.2 µM and 15.2 µM. For the same compound, the TGI [62] was 9.91 µM, the GI50 [25] was 2.99 µM and the TGI [25] was 11.2 µM and 15 µM. The TGI [26] was 6 µM and 2.94 µM, the GI50 [27] was 1.21 µM and the TGI [27] was 3.67 µM and 3.79 µM. For the same compound, the GI50 [28] was 1.04 µM, the TGI [28] was 9.24 µM and 2.52 µM and the GI50 [29] was 1.93 µM. The TGI [29] was 13.3 µM and 3.67 µM, the GI50 [30] was 4.25 µM and the TGI [30] was 5.7 µM and 18.9 µM. The TGI [31] was 4.35 µM and 2.62 µM, the GI50 [32] was 3.08 µM and the TGI [32] was 4.46 µM and 12.2 µM. The GI50 [33] was 4.44 µM, the TGI [33] was 8.15 µM and 16.3 µM and the GI50 [34] was 2.09 µM. The TGI [34] was 6.68 µM and 7.97 µM, the GI50 [35] was 6.56 µM and 1.93 µM and the TGI [35] was 17.5 µM and 9.11 µM. The GI50 [36] was 3 µM, the TGI [36] was 8.36 µM and 15.5 µM and the GI50 [37] was 1.04 µM. For the same compound, the TGI [37] was 9.35 µM and 2.6 µM, the GI50 [38] was 4.13 µM and the TGI [38] was 11.1 µM and 17 µM. The GI50 [39] was 2.66 µM, the TGI [39] was 13.9 µM and 9.86 µM and the GI50 [40] was 1.41 µM. The TGI [40] was 9.43 µM and 2.71 µM, the TGI [41] was 9.18 µM and 17.1 µM and the TGI [42] was 5.75 µM. For the same compound, the GI50 [43] was 4.62 µM, the TGI [43] was 5.71 µM and 16.6 µM and the GI50 [63] was 1.49 µM. For the same compound, the TGI [63] was 11.5 µM and 2.94 µM, the GI50 [44] was 3.06 µM and the TGI [44] was 9.55 µM. For the same compound, the GI50 [45] was 1.41 µM, the TGI [45] was 5.17 µM and 3.23 µM and the TGI [46] was 2.27 µM. The GI50 [47] was 2.56 µM and 3.56 µM, the TGI [47] was 8.38 µM and 15.3 µM and the TGI [48] was 13.1 µM. The GI50 [49] was 12.2 µM, the TGI [49] was 17.9 µM and 31.1 µM and the GI50 [50] was 1.41 µM. The TGI [50] was 10.1 µM and 7.46 µM, the TGI [51] was 7.17 µM and 10.9 µM and the TGI [64] was 7.93 µM and 8.98 µM.
